In US11541099B2, “Flounder surimi having antioxidant and antihypertensive effects and method of preparing the same” (Jeju National University Industry-Academic Cooperation …, priority 2017, dated 2023):
Converted amounts (≈) assume the structure as drawn. Residues, ends and D or L forms follow the SMILES beside them. No end group written: not given here.

Experiments:
[1] = Alkyl radical scavenging activity by ESR; details: peptides isolated from Fraction 2
Experimental: In order to identify the radical scavenging ability using ESR (electron spin resonance spectrometer, JES-FA ESR, JEOL, Japan), ESR equipment owned by the Center for University-Wide Research Facilities, Jeju University was used and was in accordance with a modified version of the method by Hiramoto (1993). 20 μL of a sample was mixed with 20 μL of distilled water, 20 μL of 40 mM AAPH and 20 μL of 40 mM POBN were added to the resulting mixture, the reaction was proceeded at 37° C. for 30 minutes and the reaction solution was transferred to a capillary tube. The conditions used for analysis were as follows: central field: 3475 G, modulation width: 0.2 mT, 22 amplitude: 500 mT, scan width: 10 mT, set microwave power: 8 mW.

[2] = target: T1, angiotensin I converting enzyme (ACE) (Oryctolagus cuniculus, UniProt P12822); assay: ACE inhibition activity (modified Cushman and Cheung's method); type: biochemical, rabbit; details: read-out: concentration inhibiting 50% of ACE (IC50) (converted)
T1 construct: The crude enzyme solution used herein was the supernatant obtained by centrifuging; tissue Sigma-Aldrich Co; host or cells: rabbit lung (acetone powder, crude extract supernatant)
T1 sequence (P12822 34-1310): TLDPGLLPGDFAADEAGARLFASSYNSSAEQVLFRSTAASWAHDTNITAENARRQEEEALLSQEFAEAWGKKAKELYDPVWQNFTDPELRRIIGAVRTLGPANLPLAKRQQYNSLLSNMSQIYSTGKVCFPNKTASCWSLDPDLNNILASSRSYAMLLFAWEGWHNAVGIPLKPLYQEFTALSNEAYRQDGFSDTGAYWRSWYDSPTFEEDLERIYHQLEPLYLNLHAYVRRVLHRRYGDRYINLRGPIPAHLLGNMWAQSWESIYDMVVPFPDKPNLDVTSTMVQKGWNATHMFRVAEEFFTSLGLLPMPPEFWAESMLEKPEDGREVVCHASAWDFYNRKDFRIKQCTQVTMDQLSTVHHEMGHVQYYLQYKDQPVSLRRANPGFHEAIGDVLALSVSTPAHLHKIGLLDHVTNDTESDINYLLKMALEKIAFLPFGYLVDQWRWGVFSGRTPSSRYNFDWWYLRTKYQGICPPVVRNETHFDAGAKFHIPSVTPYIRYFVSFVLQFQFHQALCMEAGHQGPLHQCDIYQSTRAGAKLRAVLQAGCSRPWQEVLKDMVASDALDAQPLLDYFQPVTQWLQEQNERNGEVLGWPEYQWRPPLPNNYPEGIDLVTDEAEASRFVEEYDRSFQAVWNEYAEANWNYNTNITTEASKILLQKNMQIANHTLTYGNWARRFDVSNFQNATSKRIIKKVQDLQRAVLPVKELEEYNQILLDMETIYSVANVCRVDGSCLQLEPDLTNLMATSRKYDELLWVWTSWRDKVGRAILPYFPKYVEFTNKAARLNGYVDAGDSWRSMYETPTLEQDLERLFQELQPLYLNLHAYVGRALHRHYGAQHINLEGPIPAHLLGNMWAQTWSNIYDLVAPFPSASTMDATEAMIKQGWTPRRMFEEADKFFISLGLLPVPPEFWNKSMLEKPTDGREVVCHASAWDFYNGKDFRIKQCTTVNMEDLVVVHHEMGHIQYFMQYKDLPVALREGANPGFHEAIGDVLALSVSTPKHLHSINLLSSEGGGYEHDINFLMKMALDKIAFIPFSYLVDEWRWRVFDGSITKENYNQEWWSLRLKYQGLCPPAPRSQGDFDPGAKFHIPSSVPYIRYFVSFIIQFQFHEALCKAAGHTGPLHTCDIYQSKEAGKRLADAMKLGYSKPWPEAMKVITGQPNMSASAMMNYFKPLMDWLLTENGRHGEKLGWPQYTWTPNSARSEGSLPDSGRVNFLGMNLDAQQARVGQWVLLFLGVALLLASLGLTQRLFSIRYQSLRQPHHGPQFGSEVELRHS
Experimental: ACE inhibition activity was measured by a modified version of Cushman and Cheung's method. The crude enzyme solution used herein was the supernatant obtained by centrifuging (4° C., 4,000 rpm, 40 min) after extracting a rabbit lung acetone powder (Sigma-Aldrich Co.) at a concentration of 0.2 g/10 mL (w/v) and at 4° C. for 24 hours. The substrate was prepared by dissolving hippurylhistidyl-leucine ([…], Sigma-Aldrich Co.) at a concentration of 5 mg/mL (w/v) in a 0.1 M sodium borate buffer (pH 8.3) containing 0.3 M NaCl.
ACE inhibition activity was determined as follows. 50 μL of an ACE enzyme solution was added to 50 μL of a sample extract, reaction was proceeded at 37° C. for 5 minutes, 50 μL of a substrate was added thereto and the reaction was proceeded at 37° C. for 1 hour. Then, 150 μL of 1N HCl was added to stop the reaction, 750 μL of ethyl acetate was added thereto, and the mixture was stirred for 1 minute and centrifuged (3,500 rpm, 10 min) to obtain 500 μL of the supernatant. The supernatant was completely dried at 105° C. for 4 hours, 2 mL of ethyl acetate was added thereto, and the absorbance was measured at 228 nm. A control group was obtained by adding 50 μL of distilled water, instead of the sample extract.

| IC50 value Alkyl radical scavenging activity [1] [µg/mL] | IC50 [2] [µM] | Compound |
| --- | --- | --- |
| 68 (≈ 136 µM) | 63.8 | CC[C@H](C)[C@H](N)C(=O)N[C@H](C(=O)N[C@@H](CC(=O)O)C(=O)N[C@@H](CCCNC(=N)N)C(=O)O)C(C)C [IVDR, Ile-Val-Asp-Arg] (H-IVDR-OH; N-terminus and C-terminus assumed) |
| 40 (≈ 80.7 µM) | 32.3 | NCCCC[C@H](NC(=O)[C@H](Cc1ccc(O)cc1)NC(=O)[C@@H](N)Cc1c[nH]c2ccccc12)C(=O)O [WYK, Trp-Tyr-Lys] (H-Trp-Tyr-Lys-OH; N-terminus and C-terminus assumed) |
| 77 | 117 | VASVI [VASVI, Val-Ala-Ser-Val-Ile] |
